The text below walks through data of US9073821B2, “Hydroxamic acid derivative” (priority 2010, dated 2015).

Values after ≈ are worked out from the molar mass of the structure shown. Where two headings read alike, the source gives them in different places. Where only a bound is given, the exact number is not on record here.

Assay [1] deals with Pseudomonas aeruginosa LpxC enzyme (Pseudomonas aeruginosa (strain ATCC 15692 / DSM 22644 / CIP 104116 / JCM 14847 / LMG 12228 / 1C / PRS 101 / PAO1), UniProt P47205). Put plainly: biochemical. It counts as biochemical.
The next assay relates to E. coli strain ATCC25922. Put plainly: Antimicrobial activity, MIC by broth microdilution. Type of assay: cell-based. To be noted: Escherichia coli, Table 4, 35° C., 18 hours, read-out: E. coli ATCC 25922 strain MIC.
Assay [2] concerns Klebsiella pneumoniae strain ATCC13883. Briefly: Antimicrobial activity, MIC by broth microdilution. As to conditions: Table 4, 35° C., 18 hours, read-out: Klebsiella pneumoniae ATCC 13883 strain MIC. Type of assay: cell-based.
Assay [3] concerns Pseudomonas aeruginosa strain TS88 (clinical isolate). Briefly: Antimicrobial activity, MIC by broth microdilution. As to conditions: Table 4, 35° C., 18 hours, read-out: Pseudomonas aeruginosa TS88 strain MIC. It counts as cell-based.
The target in the next assay is E. coli LpxC enzyme (Escherichia coli (strain K12), UniProt P0A725). Briefly: Inhibitory activity on E. coli LpxC enzyme (fluorescamine assay). Type of assay: biochemical. To be noted: Table 4. The procedure: Test 2: Evaluation of the Inhibitory Activity on E. coli LpxC Enzyme
An inhibition curve was constructed for each test compound by performing the aforementioned reaction at varying concentrations of the test compound. From this inhibition curve, the concentration of the test compound at which the formation of the reaction product was suppressed by 50% was determined as the IC50 of the test compound, which was an index for the inhibitory activity on E. coli LpxC enzyme.

Where [4] appears, read: Table 4, read-out: Pseudomonas aeruginosa LpxC IC50.
Where [5] appears, read: inhibitory activity on Pseudomonas aeruginosa LpxC enzyme, class symbols A/B/C, read-out: Enzyme inhibitory activity.

Chain of E. coli LpxC enzyme (P0A725 whole entry): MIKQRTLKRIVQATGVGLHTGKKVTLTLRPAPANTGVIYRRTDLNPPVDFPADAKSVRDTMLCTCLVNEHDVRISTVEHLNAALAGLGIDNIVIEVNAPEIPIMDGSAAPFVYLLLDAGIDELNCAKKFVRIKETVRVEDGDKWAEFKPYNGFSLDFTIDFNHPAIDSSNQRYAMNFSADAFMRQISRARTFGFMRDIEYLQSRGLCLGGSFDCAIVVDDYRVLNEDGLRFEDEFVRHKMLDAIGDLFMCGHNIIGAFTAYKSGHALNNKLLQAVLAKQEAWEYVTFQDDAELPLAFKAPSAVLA

As for `CNC(=O)[C@@](C)(C(=O)NO)N(C)C(=O)c1ccc(C#Cc2coc(COC)c2)cc1` [Compound 550, (2S)-N-hydroxy-2-{[(4-{[5-(methoxymethyl)furan-3-yl]ethynyl}phenyl)carbonyl](methyl)amino}-N′,2-dimethylpropanediamide], the IC50 in assay [1] was < 0.01 µM; in assay [1] (setting [4]), 0.0016 µM; against E. coli LpxC enzyme, 0.012 µM. In addition, the results for the MIC (with E. coli strain ATCC25922; in assay [2]; in assay [3]) were 0.25 µg/mL (≈ 0.605 µM), 1 µg/mL (≈ 2.42 µM) and 0.5 µg/mL (≈ 1.21 µM), respectively.
Turning to `CNC(=O)C(C(=O)NO)N(C)C(=O)c1ccc(C#Cc2ccc(CNC3CC3)cc2)cc1` (stereo not drawn) [Compound 301, 2-[{[4-({4-[(Cyclopropylamino)methyl]phenyl}ethynyl)phenyl]carbonyl}(methyl)amino]-n-hydroxy-n′-methylpropanediamide], the IC50 in assay [1] (setting [4]) was 0.0061 µM; in assay [1] (setting [5]), < 0.01 µM; on E. coli LpxC enzyme, 0.1 µM. The MIC with E. coli strain ATCC25922 came to 1 µg/mL (≈ 2.3 µM); in assay [2] it was 4 µg/mL (≈ 9.21 µM); in assay [3] it was 1 µg/mL (≈ 2.3 µM).
In the case of `CNC(=O)[C@@](C)(C(=O)NO)N(C)C(=O)c1ccc(C#Cc2ccc(CNC3COC3)cc2)cc1` [Compound 396, (2S)-N-hydroxy-N′,2-dimethyl-2-(methyl{[4-({4-[(oxetan-3-ylamino)methyl]phenyl}ethynyl)phenyl]carbonyl}amino)propanediamide], the IC50 in assay [1] (setting [4]) was 0.0031 µM; in assay [1] (setting [5]), < 0.01 µM; against E. coli LpxC enzyme it was 0.046 µM. Moreover, the MIC with E. coli strain ATCC25922 amounted to 0.5 µg/mL (≈ 1.08 µM); in assay [2], 2 µg/mL (≈ 4.31 µM); in assay [3] it was 2 µg/mL (≈ 4.31 µM).
